# Patent publication US6784178B2, “Pharmacotherapy for vascular dysfunction associated with deficient nitric oxide bioactivity” (Cornell Research Foundation, Inc., priority 2000, dated 2004)
# How the values were obtained:
# eNOS [1] = target: T1, eNOS (Bos taurus, UniProt P29473); experiment: [3H]tetrahydrobiopterin competition binding to eNOS (96-well filtration plate assay); conditions: [3H]BH4 10 pmoles, eNOS 3 pmoles, 15 minutes at 22° C., FIG. 1
# T1 construct: made in house
# T1 sequence (P29473 1-1205): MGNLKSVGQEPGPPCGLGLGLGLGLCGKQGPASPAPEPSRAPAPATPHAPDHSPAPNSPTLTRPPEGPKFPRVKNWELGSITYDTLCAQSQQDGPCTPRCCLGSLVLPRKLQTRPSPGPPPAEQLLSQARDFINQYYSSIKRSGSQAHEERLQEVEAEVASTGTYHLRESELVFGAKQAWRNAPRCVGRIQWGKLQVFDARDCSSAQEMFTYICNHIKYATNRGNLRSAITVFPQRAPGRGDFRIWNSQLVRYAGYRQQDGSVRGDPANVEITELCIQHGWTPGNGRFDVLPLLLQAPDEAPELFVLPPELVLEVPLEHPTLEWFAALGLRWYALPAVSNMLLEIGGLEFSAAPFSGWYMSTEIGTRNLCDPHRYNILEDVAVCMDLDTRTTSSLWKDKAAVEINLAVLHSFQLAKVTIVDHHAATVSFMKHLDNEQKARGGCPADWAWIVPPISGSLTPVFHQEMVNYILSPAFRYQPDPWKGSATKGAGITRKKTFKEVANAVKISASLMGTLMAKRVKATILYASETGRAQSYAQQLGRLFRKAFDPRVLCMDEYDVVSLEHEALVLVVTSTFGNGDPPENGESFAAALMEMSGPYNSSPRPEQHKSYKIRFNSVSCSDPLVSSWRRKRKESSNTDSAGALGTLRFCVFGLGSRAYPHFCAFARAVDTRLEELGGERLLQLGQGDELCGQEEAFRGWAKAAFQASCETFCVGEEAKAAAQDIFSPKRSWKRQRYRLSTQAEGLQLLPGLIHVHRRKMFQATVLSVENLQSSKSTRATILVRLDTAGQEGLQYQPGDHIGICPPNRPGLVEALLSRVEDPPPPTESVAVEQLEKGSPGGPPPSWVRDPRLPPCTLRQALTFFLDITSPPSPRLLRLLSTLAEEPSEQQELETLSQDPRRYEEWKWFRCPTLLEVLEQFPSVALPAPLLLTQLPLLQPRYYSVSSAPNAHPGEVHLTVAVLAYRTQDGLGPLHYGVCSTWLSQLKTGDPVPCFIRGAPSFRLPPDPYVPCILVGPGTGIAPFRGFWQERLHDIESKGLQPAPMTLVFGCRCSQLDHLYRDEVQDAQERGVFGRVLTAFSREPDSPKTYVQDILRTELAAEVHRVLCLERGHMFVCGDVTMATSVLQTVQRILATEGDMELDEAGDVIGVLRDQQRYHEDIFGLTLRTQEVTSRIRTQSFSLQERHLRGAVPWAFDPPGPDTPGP
# Method: (§1) The eNOS used in Reference Examples 1, 2, 3 and 4 was made as described in Martasek, P., et al., Biochem. Biophys. Res. Commn 219, 359-365 (1996).
# Increasing concentrations of unlabeled pterins were incubated for 15 minutes at 22° C. with [^3]tetrahydrobiopterin ([^3H]BH4), 10 pmoles, and eNOS, 3 pmoles, in binding buffer which is Tris.HCl, pH 7.5, (50 mM), and dithiothreitol (DTT) (1 mM), in a 100 microliter volume in each well in a 96-well filtration plate assay. The pterins used include 5,6,7,8-tetrahydrobiopterin (BH4), 7,8-dihydrobiopterin (BH2), 6-methyltetrahydrobiopterin (6 MePH4) and sepiapterin. Data which are shown in FIG. 1 are mean±SEM values of triplicate determinations. Similar results were obtained in four separate experiments. In FIG. 1, the squares denote BH4 for the naturally occurring (R)-stereoisomer of BH4 and represent BH4, the triangles represent BH2, the diamonds represent 6 MePH4, and the circles represent sepiapterin. In FIG. 1, the term “Inhibitor” in the horizontal legend means pterin analog and is generic for BH4, BH2, 6MePH4 and sepiapterin. Incubations were carried out at the concentrations indicated by the data points in FIG. 1. This experiment is to compare the ability of the named pterins to compete for [^3H]BH4 binding to eNOS.
# eNOS [2] = target: T2, eNOS (Bos taurus, UniProt P29473); experiment: EPR (DEPMPO spin-trap) assessment of superoxide production by pterin-bound eNOS; type: biochemical; conditions: 7 pmol eNOS; BH4 10 μM in buffer; subsequent addition of sepiapterin 50 μM or BH2 1 mM; FIGS. 2(a)-(c)
# T2 construct: made in house
# Method: as §1
# Assay buffer utilized contained HEPES (50 mM, pH 7.4), calcium (0.2 mM), calmodulin (10 μg/ml), NADPH (0.1 mM), L-arginine (0.1 mM), tetrahydrobiopterin (10 μM), DEPMPO (structure shown in upper right of FIG. 2(a)) (50 mM), and diethylenetriamine pentaacetic acid (DTPA) (0.1 mM). Included was 7 pmol eNOS. Incubation was for 15 min at 22° C. Subsequent addition was either of sepiapterin (50 μM) or BH2 (1 mM). The DEPMPO functions as a probe (spin-trap) that selectively captures superoxide anion. Electron paramagnetic resonance (EPR) was carried out to determine superoxide production. EPR was carried out at microwave power of 2 mW, modulation amplitude 1G, time constant 0.128 seconds, scan rate 1.6 G/s, gain 1.25×10E5, number of scans 10.
# eNOS [3] = target: T2, eNOS; experiment: Total nitrate/nitrite (Greiss assay) production by BH4- or BH2-bound eNOS from arginine or N-hydroxyarginine; type: biochemical; conditions: for production of nitric oxide (total nitrate/nitrite) from substrate by BH2-bound eNOS / production of nitric oxide (total nitrate/nitrite) from substrate by BH4-bound eNOS: substrate 100 μM, eNOS 10 pmol, 1 hour at 37° C.; for production of nitric oxide (total nitrate/nitrite) from substrate by BH2-bound eNOS: BH2 10 μM; for production of nitric oxide (total nitrate/nitrite) from substrate by BH4-bound eNOS: BH4 10 μM
# Method: as §1
# All samples were 100 microliter total volume and contained assay buffer (Tris.HCl pH 7.6 (50 mM), DTT (1 mM), calcium (100 μM), and calmodulin (100 nM)). In the assay buffer, eNOS (10 pmol), either BH4 (10 μM) or BH2 (10 μM), and either L-arginine (100 μM) or N^ω-hydroxy-L-arginine (100 μM) were introduced. In some experiments, the nitric oxide synthase inhibitor N^ω-methyl-L-arginine (NMA, 1 mM) was additionally added or the required NO synthase cofactor calmodulin was omitted (No CaM). Incubations were for 1 hour at 37° C. Total nitrate/nitrite (as a measure of nitric oxide) was measured by the Greiss assay as described in “Methods of Nitric Oxide Research,” edited by Feelisch, M. and Stamler, J. S., John Wiley & Sons Ltd. (1996) at pages 491-497. Results are shown in FIGS. 3(a), 3(b), 3(c) and 3(d). […] Data represent means±SEM values of quadruplicate determinations.
# [4] = Example II: treadmill test in male with coronary artery disease; type: in vivo, human; conditions: oral 10 mg/kg, within 90 minutes after dose; 3 mph, 5% incline; before treatment pain after 10 minutes
# Method: A person with coronary artery disease develops chest pain and electrocardiographic evidence of angina after 10 minutes on a treadmill at 3 mph and 5% incline. Within 90 minutes after an oral dose of 10 mg/kg of N^ω-hydroxy-L-arginine, the subject is able to walk on the treadmill at 3 mph and 5% incline for 25 minutes without pain or evidence of […].
# [5] = Example V: chronic oral treatment of man with mild hypertension and coronary artery atherosclerosis; type: in vivo, human; conditions: oral 5 mg/kg every 4 hours, free drug or with antioxidants/vitamins, with or without L-arginine
# Method: He is treated with 5 mg/kg N^ω-hydroxy-L-arginine every 4 hours orally as either free drug or in admixture with antioxidant agents and vitamins (e.g., ascorbate, alpha-tocopherol, vitamin B6, vitamin B12, folate (folic acid), carotenoids, coenzyme Q10, phytoestrogens (including isoflavonoids), selenium, butylated hydroxytoluene (BHT), butylated hydroxyanisole (BHA) and n-3 polyunsaturated fatty acids (PUFA)) with or without L-arginine supplementation (20 mg/kg every 4 hours). The mixture is delivered as a nutriceutical. Blood pressure normalizes to less than 130/80 mm Hg and angiographic evidence indicates atherosclerosis progression is less than 10% additional over the next five years.
# [6] = Example I: ointment applied to toes of male with Type I diabetes; type: in vivo, human; conditions: 1% by weight ointment four times a day
# From the text: A person with Type I diabetes presents with symptoms of pain in toes and loss of pink color (gray tissue tone) in toes. An ointment containing 1% by weight N^ω-hydroxy-L-arginine is applied to the toes four times a day.
# [7] = Example III: blood pressure and vascular resistance in hypertensive female; type: in vivo, human; conditions: single 10 mg/kg intravenous dose, one hour after
# Method: A person has moderate hypertension (150/100 mm Hg) and elevated vascular resistance. One hour after receiving a single 10 mg/kg intravenous dose of N^ω-hydroxy-L-arginine, mean arterial blood pressure is diminished by 14 mm Hg and systemic vascular resistance is reduced by 10%.
# [8] = Example IV: chronic oral therapy after stroke; type: in vivo, human; conditions: oral 5 mg/kg every 4 hours, alone or combined with L-arginine 20 mg/kg every 4 hours
# Method: A person suffers from type 2 diabetes (adult onset diabetes or insulin resistant diabetes), coronary artery disease and hypertension (a not uncommon composite of conditions), experiences a stroke resulting in acute left-sided paralysis owing to right middle cerebral artery occlusion. Surviving the stroke, the patient is placed on chronic oral therapy with N^ω-hydroxy-L-arginine, 5 mg/kg every 4 hours, or a combination of this with L-arginine, 20 mg/kg every 4 hours.
# eNOS [9] = target: T2, eNOS; experiment: Concentration dependence of nitric oxide synthesis from N-hydroxyarginine by BH2- or BH4-bound eNOS; type: biochemical; conditions: eNOS 10 pmol preincubated with BH2 10 μM or BH4 10 μM; 1 hour at 37° C.; FIG. 4
# Method: as §1
# eNOS (10 pmol) was preincubated for 30 minutes at 37° C. in the presence of either BH2 (10 μM) or BH4 (10 μM) in assay buffer (Tris.HCl pH 7.6 (50 mM), DTT (1 mM), calcium (100 μM) and calmodulin (100 nM)). Then N^ω-hydroxy-L-arginine (denoted “Hydroxyarginine” in FIG. 4) was added (concentrations as disclosed in FIG. 4) and incubations were 100 microliter total volume and were allowed to proceed for 1 hour at 37° C. Nitric oxide production was assessed from accumulation of its stable oxidation products (nitrite and nitrate), quantified by a modified Greiss assay (reference recited in Reference Example 3). Data are mean±SEM values of quadruplicate determinations.
compound,measurement,setting,value
"C[C@H](O)[C@H](O)C1=Nc2c(nc(N)[nH]c2=O)NC1 [BH2, 7,8-dihydrobiopterin]",affinity of binding to eNOS (competition for [3H]BH4 binding),eNOS [1],bind with equal affinity to eNOS
same,superoxide production by eNOS bound to the pterin (EPR),eNOS [2],activate superoxide production
"CNC(=N)NCCC[C@H](N)C(=O)O [NMA, N^ω-methyl-L-arginine]",block of arginine conversion to nitric oxide by BH4-bound eNOS,"eNOS [3]; NMA 1 mM added, L-arginine 100 μM",> 90%
same,effect on N-hydroxyarginine conversion to nitric oxide by BH2-bound eNOS,"eNOS [3]; NMA 1 mM added, N-hydroxy-L-arginine 100 μM",< 30%
N=C(NO)NCCC[C@H](N)C(=O)O [N^ω-hydroxy-L-arginine],time able to walk on treadmill without pain or evidence of angina,[4],25 min
same,atherosclerosis progression (angiographic) over the next five years,[5],less than 10%
same,blood pressure after treatment,[5]; baseline 140/90 mm Hg,less than 130/80
same,blood perfusion,[6],Blood perfusion is increased
same,pain in toes,[6]; within 48 hours,pain diminishes
same,tissue colour of toes,[6]; within 48 hours,tissue becomes pinker
same,decrease of mean arterial blood pressure,[7],14 mm Hg
same,reduction of systemic vascular resistance,[7],10%
same,recurrence of stroke within the next two years,[8],no recurrence of stroke
same,production of nitrogen oxides (nitrite and nitrate) by eNOS from the substrate,eNOS [9],supports the production of nitrogen oxides by eNOS in the presence of either BH2 or BH4
same,production of nitric oxide (total nitrate/nitrite) from substrate by BH2-bound eNOS,eNOS [3],does cause production of nitric oxide
same,production of nitric oxide (total nitrate/nitrite) from substrate by BH4-bound eNOS,eNOS [3],causes production of nitric oxide
"N=C(N)NCCC[C@H](N)C(=O)O [arginine, L-arginine]",production of nitric oxide (total nitrate/nitrite) from substrate by BH2-bound eNOS,eNOS [3],does not cause production of nitric oxide
same,production of nitric oxide (total nitrate/nitrite) from substrate by BH4-bound eNOS,eNOS [3],causes production of nitric oxide
C[C@H](O)C(=O)C1=Nc2c(nc(N)[nH]c2=O)NC1 [sepiapterin],superoxide production by eNOS bound to the pterin (EPR),eNOS [2],will activate superoxide production
